This passage reports IC50 results from patent publication US20230026271A1, “Piperazine Compounds for Inhibiting CPS1” (Eisai R&D Management Co., Ltd., priority 2019, published 2023).

As a reminder, the IC50 is the midpoint of a concentration-inhibition curve.

This experiment deals with T1, CPS1 (Homo sapiens, UniProt P31327).
T1 construct: The full length, human CPS1 gene was cloned into pFastBac HTA; His6 (from the pFastBac HTA vector); made in house; host or cells: SF21 insect cells (baculovirus, Bac-to-bac)
T1 sequence (P31327 39-1500): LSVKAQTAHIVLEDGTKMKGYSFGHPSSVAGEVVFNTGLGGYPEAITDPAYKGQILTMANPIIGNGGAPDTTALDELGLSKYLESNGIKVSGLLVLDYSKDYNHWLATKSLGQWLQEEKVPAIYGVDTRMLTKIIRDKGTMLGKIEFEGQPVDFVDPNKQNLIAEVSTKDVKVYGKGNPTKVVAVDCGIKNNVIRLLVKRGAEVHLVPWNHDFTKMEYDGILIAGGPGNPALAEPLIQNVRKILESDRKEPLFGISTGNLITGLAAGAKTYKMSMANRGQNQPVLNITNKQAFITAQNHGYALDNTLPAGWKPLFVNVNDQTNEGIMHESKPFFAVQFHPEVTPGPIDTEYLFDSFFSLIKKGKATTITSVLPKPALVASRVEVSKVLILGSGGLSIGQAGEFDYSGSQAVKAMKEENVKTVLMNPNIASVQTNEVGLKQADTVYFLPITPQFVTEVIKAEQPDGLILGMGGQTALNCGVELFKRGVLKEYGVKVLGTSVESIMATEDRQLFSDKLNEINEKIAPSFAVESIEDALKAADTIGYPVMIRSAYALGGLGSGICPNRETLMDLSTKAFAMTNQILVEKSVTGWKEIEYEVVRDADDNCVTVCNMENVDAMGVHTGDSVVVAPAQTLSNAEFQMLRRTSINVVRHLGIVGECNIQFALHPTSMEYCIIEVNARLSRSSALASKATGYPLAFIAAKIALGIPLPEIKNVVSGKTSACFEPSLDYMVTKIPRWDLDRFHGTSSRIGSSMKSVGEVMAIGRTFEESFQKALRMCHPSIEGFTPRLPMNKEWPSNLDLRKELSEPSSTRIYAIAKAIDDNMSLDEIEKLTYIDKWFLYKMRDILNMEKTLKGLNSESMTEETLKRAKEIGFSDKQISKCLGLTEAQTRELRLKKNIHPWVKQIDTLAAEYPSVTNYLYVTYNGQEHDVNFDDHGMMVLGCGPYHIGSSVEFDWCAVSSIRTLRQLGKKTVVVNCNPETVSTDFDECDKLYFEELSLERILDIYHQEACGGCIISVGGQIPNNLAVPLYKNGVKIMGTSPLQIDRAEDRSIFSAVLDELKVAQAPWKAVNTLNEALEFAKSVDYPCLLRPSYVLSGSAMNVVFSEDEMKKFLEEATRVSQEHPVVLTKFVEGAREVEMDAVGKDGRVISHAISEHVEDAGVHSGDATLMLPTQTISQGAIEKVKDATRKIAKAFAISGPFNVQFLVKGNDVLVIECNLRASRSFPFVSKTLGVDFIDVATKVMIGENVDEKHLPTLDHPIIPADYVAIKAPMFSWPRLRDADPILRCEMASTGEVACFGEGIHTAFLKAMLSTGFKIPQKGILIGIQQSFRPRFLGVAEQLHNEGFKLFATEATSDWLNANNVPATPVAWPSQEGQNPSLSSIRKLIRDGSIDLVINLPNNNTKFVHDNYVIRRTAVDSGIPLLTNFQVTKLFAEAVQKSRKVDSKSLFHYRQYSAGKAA
Description: ADP-Glo endpoint assay measuring the ATPase activity of CPS1. The class given is biochemical. Conditions: geometric mean of a minimum of two values; 50 nM CPS1, 10 μM ATP, 0.2 mM NAG, 60 min at room temperature; read-out: ADPGlo IC50. The gist of the method:
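Full-length human His-tagged CPS1 from SF21 insect cells, 50 nM, preincubated 20 min with compound in pH 7.0 HEPES buffer containing KHCO3, (NH4)2SO3, MgCl2 and 0.2 mM NAG. Reaction started with 10 μM ATP, 60 min at room temperature; ADP formed detected by ADP-Glo luminescence.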
(In general: ADP-Glo first removes unused ATP, then detects ADP through luciferase.)
Turning to `COc1ccc(OC)c2[nH]c(C(=O)N3C[C@@H](C)N(C(=O)c4ccc5cc[nH]c5c4)[C@H](C)C3)cc12` [Compound 53, ((3R,5R)-4-(1H-indole-6-carbonyl)-3,5-dimethylpiperazin-1-yl)(4,7-dimethoxy-1H-indol-2-yl)methanone], the concentration for half-maximal inhibition (IC50) is 1.59 µM. `COc1ccc(OC)c2[nH]c(C(=O)N3CCN(C(=O)c4ccc5cc[nH]c5c4)CC3)cc12` [Compound 54, (4-(1H-indole-6-carbonyl)piperazin-1-yl)(4,7-dimethoxy-1H-indol-2-yl)methanone]: the IC50 came out at 2.12 µM.

Regarding `COc1ccc(C(=O)N2C[C@@H](C)N(C(=O)c3cc4cc(O)ccc4[nH]3)[C@H](C)C2)c(F)c1` [Compound 55, ((2R,6R)-4-(2-fluoro-4-methoxybenzoyl)-2,6-dimethylpiperazin-1-yl)(5-hydroxy-1H-indol-2-yl)methanone], the half-maximal inhibitory concentration (IC50) worked out at 2.13 µM. To `COc1ccc(C(=O)N2[C@H](C)CN(C(=O)c3c[nH]c4c(C)cccc34)C[C@H]2C)c(F)c1` [Compound 56, ((2R,6R)-2,6-dimethyl-4-(7-methyl-1H-indole-3-carbonyl)piperazin-1-yl)(2-fluoro-4-methoxyphenyl)methanone] belongs 3.28 µM; to `COc1ccc(C(=O)N2C[C@@H](C)N(C(=O)c3cc4ccccc4[nH]3)[C@H](C)C2)c(F)c1` [Compound 57, ((3R,5R)-4-(1H-indole-2-carbonyl)-3,5-dimethylpiperazin-1-yl)(2-fluoro-4-methoxyphenyl)methanone], 3.3 µM; to `COc1ccc(C(=O)N2[C@H](C)CN(C(=O)c3c[nH]c4c(F)cccc34)C[C@H]2C)c(F)c1` [Compound 58, (7-fluoro-1H-indol-3-yl)((3R,5R)-4-(2-fluoro-4-methoxybenzoyl)-3,5-dimethylpiperazin-1-yl)methanone], 4.05 µM.

Turning to `COc1ccc(C(=O)N2[C@H](C)CN(C(=O)c3cc4ccccc4[nH]3)C[C@H]2C)c(F)c1` [Compound 59, ((2R,6R)-4-(1H-indole-2-carbonyl)-2,6-dimethylpiperazin-1-yl)(2-fluoro-4-methoxyphenyl)methanone], the half-maximal inhibitory concentration (IC50) is 5.58 µM. As to `COc1ccc(C(=O)N2[C@H](C)CN(C(=O)c3c[nH]c4ccc(Cl)cc34)C[C@H]2C)c(F)c1` [Compound 61, (5-chloro-1H-indol-3-yl)((3R,5R)-4-(2-fluoro-4-methoxybenzoyl)-3,5-dimethylpiperazin-1-yl)methanone], the half-inhibitory concentration (IC50) is 7.39 µM.

For `COc1ccc(C(=O)N2[C@H](C)CN(c3ncnc4cc(OC)ccc34)C[C@H]2C)c(F)c1` [Compound 62, (2-fluoro-4-methoxyphenyl)((2R,6R)-4-(7-methoxyquinazolin-4-yl)-2,6-dimethylpiperazin-1-yl)methanone], the IC50 was 10.5 µM.

Take `COc1ccc(C(=O)N2C[C@@H](C)N(C(=O)c3ccc(OC)cc3)[C@H](C)C2)cc1` [Compound 63, ((2R,6R)-2,6-dimethylpiperazine-1,4-diyl)bis((4-methoxyphenyl)methanone)]: the half-maximal inhibitory concentration (IC50) stood at 4.74 µM. `COc1ccc(OC)c2[nH]c(C(=O)N3CCN(C(=O)Cc4c[nH]c5ccccc45)CC3)cc12` [Compound 64, 1-(4-(4,7-dimethoxy-1H-indole-2-carbonyl)piperazin-1-yl)-2-(1H-indol-3-yl)ethanone]: the half-inhibitory concentration (IC50) was 3.72 µM. As for `COc1ccc(C(=O)N2[C@H](C)CN(C(=O)c3ccc(O)cc3F)C[C@H]2C)c(F)c1` [Compound 65, ((2R,6R)-4-(2-fluoro-4-hydroxybenzoyl)-2,6-dimethylpiperzin-1-yl)(2-fluoro-4-methoxyphenyl)methanone], the 50% inhibitory concentration (IC50) turned out to be 3.79 µM. For `COc1ccc(C(=O)N2C[C@@H](C)N(C(=O)c3ccc(Cl)cc3F)[C@H](C)C2)c(F)c1` [Compound 66, ((3R,5R)-4-(4-chloro-2-fluorobenzoyl)-3,5-dimethylpiperazin-1-yl)(2-fluoro-4-methoxyphenyl)methanone], the 50% inhibitory concentration (IC50) worked out at 4.91 µM. Turning to `COc1ccc(C(=O)N2C[C@@H](C)N(C(=O)c3cc(OC)ccc3F)[C@H](C)C2)c(F)c1` [Compound 67, ((2R,6R)-4-(2-fluoro-4-methoxybenzoyl)-2,6-dimethylpiperazin-1-yl)(2-fluoro-5-methoxyphenyl)methanone], the IC50 turned out to be 5.15 µM. Consider `COc1ccc(C(=O)N2CC(C)N(C(=O)c3ccc(OC)cc3F)C(C)C2)c(F)c1` (centres unmarked) [Compound 68, (2,6-dimethylpiperazine-1,4-diyl)bis((2-fluoro-4-methoxyphenyl)methanone)], for which the IC50 is 6.34 µM. Take `COc1ccc(C(=O)N2[C@H](C)CN(C(=O)c3ccc4c(c3)NCC4)C[C@H]2C)c(F)c1` [Compound 69, ((3R,5R)-4-(2-fluoro-4-methoxybenzoyl)-3,5-dimethylpiperazin-1-yl)(indolin-6-yl)methanone]: the concentration for half-maximal inhibition (IC50) is 6.43 µM. Consider `COc1ccc(C(=O)N2C[C@@H](C)N(C(=O)c3ccc(C)c(O)c3)[C@H](C)C2)c(F)c1` [Compound 70], for which the IC50 was found to be 8.71 µM. In the case of `COc1ccc(C(=O)N2CC(C)N(C(=O)c3ccc(OC)cc3F)CC2C)c(F)c1` (centres unmarked) [Compound 71], the concentration for half-maximal inhibition (IC50) is 9.97 µM. With `COc1ccc(C(=O)N2[C@H](C)CN(C(=O)c3ccc(OC)c(O)c3)C[C@H]2C)c(F)c1` [Compound 72, ((3R,5R)-4-(2-fluoro-4-methoxybenzoyl)-3,5-dimethylpiperazin-1-yl)(3-hydroxy-4-methoxyphenyl)methanone], the half-maximal inhibitory concentration (IC50) was 11.5 µM. To `COc1ccc(C(=O)N2C[C@@H](C)N(C(=O)c3ccc4cc[nH]c4c3F)[C@H](C)C2)c(F)c1` [Compound 73, (7-fluoro-1H-indol-6-yl)((2R,6R)-4-(2-fluoro-4-methoxybenzoyl)-2,6-dimethylpiperazin-1-yl)methanone] belongs 11.6 µM; to `COc1ccc(C(=O)N2C[C@@H](C)N(C(=O)c3ccc4c(c3)CCCO4)[C@H](C)C2)c(F)c1` [Compound 74, ((3R,5R)-4-(chroman-6-carbonyl)-3,5-dimethylpiperazin-1-yl)(2-fluoro-4-methoxyphenyl)methanone], 15.8 µM; to `COc1ccc(C(=O)N2C[C@@H](C)N(C(=O)c3cccc(O)c3F)[C@H](C)C2)c(F)c1` [Compound 75, ((3R,5R)-4-(2-fluoro-3-hydroxybenzoyl)-3,5-dimethylpiperazin-1-yl)(2-fluoro-4-methoxyphenyl)methanone], 16.1 µM. On to `COc1ccc(C(=O)N2C[C@@H](C)N(C(=O)c3ccc(S(C)(=O)=O)cc3F)[C@H](C)C2)c(F)c1` [Compound 76, ((3R,5R)-4-(2-fluoro-4-(methylsulfonyl)benzoyl)-3,5-dimethylpiperazin-1-yl)(2-fluoro-4-methoxyphenyl)methanone], for which the concentration for half-maximal inhibition (IC50) turned out to be 16.7 µM. For `COc1ccc(C(=O)N2[C@H](C)CN(C(=O)c3c[nH]c4ccccc34)C[C@H]2C)c(F)c1` [Compound 77, ((2R,6R)-4-(1H-indole-3-carbonyl)-2,6-dimethylpiperazin-1-yl)(2-fluoro-4-methoxyphenyl)methanone], the concentration for half-maximal inhibition (IC50) was found to be 18.9 µM. On to `COc1ccc(C(=O)N2[C@H](C)CN(C(=O)Cc3c(C)[nH]c4ccccc34)C[C@H]2C)c(F)c1` [Compound 78, 1-((3R,5R)-4-(2-fluoro-4-methoxybenzoyl)-3,5-dimethylpiperazin-1-yl)-2-(2-methyl-1H-indol-3-yl)ethanone], for which the IC50 was determined as 19.2 µM. Consider `COc1ccc(C(=O)N2C[C@@H](C)N(C(=O)c3ccc(OC)c(C)c3)[C@H](C)C2)c(F)c1` [Compound 79, ((2R,6R)-4-(2-fluoro-4-methoxybenzoyl)-2,6-dimethylpiperazin-1-yl)(4-methoxy-3-methylphenyl)methanone], for which the 50% inhibitory concentration (IC50) came to 22.2 µM.
